Source: a melting point compilation (Tetko et al.; mined from patent text by program, amines drawn as free bases though some values may be those of a salt)

`CCn1cnc2c(Nc3cccc(Cl)c3)nc(N3CCC[C@@H]3CN)nc21` and `CN(C)c1nc(N(C)C)c2ncn(Cc3ccccc3F)c2n1` cannot be ordered by melting point: 126 to 129 °C for the first, 127 °C for the second.

First: COC(=O)CCCc1cc2cc(Cl)ccc2n1S(=O)(=O)c1ccc2c(c1)CCN2C(C)=O
Second: CS(=O)(=O)Nc1ccc2c(c1)C(=O)C(C1CCN(CCc3ccc4nonc4c3)CC1)C2 (stereo not given)
The melting point of the first is lower: 162 to 165 °C for the first, 214 to 217 °C for the second.

Compared with `O=C(O)c1ccc(-c2nc(-c3ccccc3C(F)(F)F)co2)cc1`, `FC(F)(F)c1cccc2c(-c3ccccc3)c(-c3ccccc3)cnc12` is lower in melting point: 264 to 265 °C for the first, 181 to 183 °C for the second.

First: NC(=O)c1cn(Cc2ccccc2F)cn1
Second: OCc1cn(-c2ccc(F)c(C(F)F)c2)cn1
The melting point of the first is higher: 204 to 205 °C for the first, 133 to 134 °C for the second.

`COc1cc2c(cc1OC)C(NC=O)C(c1ccc3c(c1)OCO3)CC2` (stereo not given) and `COc1cc2c(cc1OC)C1=C(C#N)SCC(=O)N1CC2` cannot be ordered by melting point: 150 to 190 °C for the first, 186 to 187 °C for the second.

First: COc1ccc(NC(=O)OC2CN3CCC2CC3)cc1 (stereo not given)
Second: COc1cccc(C=NNC(=O)OC(C)(C)C)c1
The melting point of the first is higher: 160 °C for the first, 136 to 137 °C for the second.

Compared with `Cn1c(NC(=O)c2ccccc2)nc2ccccc2c1=O`, `CCN(c1ccccc1)c1ccc(C(=O)c2ccccc2)cc1N` is lower in melting point: 185 to 187 °C for the first, 82 to 82.5 °C for the second.

`O=C1COCc2ccccc2N1` and `Cn1cc(CCN2CCC3(CC2)CNC(=O)O3)c2ccccc21` cannot be ordered by melting point: 160 to 165 °C for the first, 158 to 161 °C for the second.

First: Cc1ccc(CSc2nc3cc4c(cc3[nH]2)OCCO4)nc1
Second: COc1ccc(Cc2cc(O)ccc2OC)nc1
The melting point of the first is higher: 155 to 156 °C for the first, 115 to 122 °C for the second.

First: Cc1nnc2n1-c1ccc(C#CCOc3ccccc3)cc1C(c1ccccc1Cl)=NC2
Second: Brc1ccccc1-n1cnc2cnc3ccc(-c4ccccc4)cc3c21
The melting point of the first is higher: 160 to 162 °C for the first, 128 to 129 °C for the second.

First: O=C(O)CCCCCCCCCCCOC(=O)OCC(Cl)(Cl)Cl
Second: CCc1cc(-c2ccc(F)cc2)c(O)cc1OCCCCCC(c1ccc(OCC(=O)O)cc1)c1nnn[nH]1 (stereo not given)
The melting point of the first is lower: 44.6 to 46.4 °C for the first, 102 to 104 °C for the second.

Compared with `CCOc1nn(-c2ccc(C(F)(F)F)cn2)cc1CCCOc1nn(C)cc1CC(=O)O`, `O=C(O)CCc1cn(Cc2ccc(OCc3ccc4ccccc4n3)nc2)nc1-c1ccccc1` is higher in melting point: 115 to 116 °C for the first, 166 to 167 °C for the second.

Compared with `O=Cc1ccc(OC(F)F)c(OCC2CC2)c1`, `COCC(=O)N(c1c(C)cccc1C)C1CCOC1=O` (stereo not given) is higher in melting point: 115 to 116 °C for the first, 118 to 120 °C for the second.

First: CS(=O)(=O)Nn1c(=O)[nH]c2cc(C(F)(F)F)c(N3CCC(=O)CC3)cc2c1=O
Second: Cn1nc(-c2cc(S(=O)(=O)Cl)c(Cl)cc2F)c(Cl)c1C(F)(F)F
The melting point of the first is higher: 238 to 242 °C for the first, 116 to 117 °C for the second.

Compared with `Cc1cccnc1S(=O)(=O)NC(C)(C)C`, `CCN1c2ncccc2C(OS(C)(=O)=O)Nc2c(C)cc(C)nc21` (stereo not given) is higher in melting point: 107 to 110 °C for the first, 154 to 155 °C for the second.

Compared with `O=C(O)Cc1ccc(NC(=O)C(COc2ccc(Cl)cc2)NS(=O)(=O)c2ccc(Br)cc2)cc1` (racemic), `CC(=O)c1ccc(NC(=O)c2ccc(-c3ccccc3)cc2)cc1` is higher in melting point: 218 to 220 °C for the first, 283 to 285 °C for the second.

First: CCOC(=O)C1=C(C)NC(COC(N)=O)=C(C(=O)OCC)C1c1ccccc1[N+](=O)[O-] (stereo not given)
Second: CCCC1=C(C(=O)OCC)C(c2cccc(OC)c2OC)c2c[nH]nc2N1 (stereo not given)
The melting point of the first is lower: 128 to 132 °C for the first, 205 to 206 °C for the second.

First: CC(C)(C)Nc1nc(Cl)cc(N2CCCC2)n1
Second: O=C(c1ccccc1)c1ccc(N2CCCCC2)c([N+](=O)[O-])c1
The melting point of the first is higher: 153 to 157 °C for the first, 77 °C for the second.

Compared with `CCc1c(C(=O)c2cc(C)cc(C=CC#N)c2)[nH]c(=O)[nH]c1=O`, `CCCNS(=O)(=O)c1cc(C(=O)CBr)ccc1Cl` is lower in melting point: 305 to 306 °C for the first, 96 °C for the second.

First: CN(Cc1ccccc1)C(=O)C[C@@H](Cc1ccccc1)C(=O)O
Second: N#Cc1ccc(C(=O)NC(=S)NCCc2ccccc2)cc1
The melting point of the first is lower: 119 to 121 °C for the first, 142 to 144 °C for the second.

Compared with `CC1(C)CCC2(Cc3ccc(Cl)cc3)OC12CO` (stereo not given), `CC1(C)CCC(C)(C)c2cc(CC#Cc3ccc(C(=O)O)cc3)ccc21` is higher in melting point: 36 to 38 °C for the first, 167 to 168 °C for the second.

First: CCOC(=O)/C=C/c1cc2cc(OCc3nc(-c4ccccc4)oc3C)ccc2o1
Second: Oc1ccc2cc(-c3nc4cc(O)ccc4o3)ccc2c1
The melting point of the first is lower: 120 to 121 °C for the first, 288 to 290 °C for the second.

Compared with `COCCC(=O)N[C@H]1CC[C@H](CCN2CCN(c3nc(C)cc4c3CCO4)CC2)CC1`, `COc1cc2c(cc1Nc1ncc(Cl)c(N[C@@H]3CCCC[C@H]3NS(C)(=O)=O)n1)CCN(C(=O)CN(C)C)CC2` is lower in melting point: 178 °C for the first, 128 to 141 °C for the second.

Compared with `CCN1C(=O)C(C)(C)C(=O)N(C)c2cc(CN(CCn3cc(C)c4occc4c3=O)Cc3ncccc3N)ccc21`, `CS(=O)(=O)c1cccc(-n2c(=O)c(CCCc3ccncc3)cc3cccnc32)c1` is lower in melting point: 188 to 192 °C for the first, 127 to 131 °C for the second.

First: O=Cc1ccc2nc3c(cc2c1)-c1cccc2cccc-3c12
Second: N#Cc1cccc(OCc2cccc(OCc3ccc4ccccc4n3)c2)c1
The melting point of the first is higher: 245 to 246 °C for the first, 86 to 87 °C for the second.

Compared with `CCCCC1=NC(=NOC(=O)NC)SC1(C)C`, `CCCNC(=O)c1cnc2ccc(C)cn2c1=O` is lower in melting point: 128 to 130 °C for the first, 126 to 128 °C for the second.

First: Cc1cc(OCC(=O)O)c2c(c1C)-c1nc(SCCC(c3ccccc3)c3ccccc3)sc1C2
Second: CC(C)(C)OC(=O)NC1CCc2cccc(-c3ccccc3)c2CC1=O (stereo not given)
The melting point of the first is lower: 142 to 144 °C for the first, 173 to 174 °C for the second.

Compared with `O=S(=O)(Nc1ccc2c(OCc3cccc(-c4ccc(F)cc4)n3)cccc2c1)C(F)(F)F`, `O=C(Nc1cccc(NCc2ccccc2)n1)c1cc(-c2ccc(F)cc2)n(C2CCCCO2)n1` (stereo not given) is lower in melting point: 173 to 174 °C for the first, 139 to 140 °C for the second.

Compared with `COC(=O)[C@@H]1C[C@H](OC(=N)C(Cl)(Cl)Cl)C(=O)[C@H]2[C@@]1(C)CC[C@H]1C(=O)O[C@H](c3ccoc3)C[C@]21C`, `COC(=O)c1ccc(CN2CCN(C(=O)c3ccc(Cl)cc3)CC2)cc1` is higher in melting point: 120 to 123 °C for the first, 134 to 135 °C for the second.

Compared with `COC(=O)c1c(C)n(-c2cc([N+](=O)[O-])c(C)cc2C)cc(Cl)c1=O`, `Cc1cc(C(=O)O)cc(C)c1C(O)c1cc(-n2ccnc2)ccc1Cl` (stereo not given) is higher in melting point: 266 °C for the first, 317 to 320 °C for the second.

First: C=CC(C)c1cc(C)c2c(c1O)C(N(C)C(=O)c1cccnc1)C1CCCCC21 (stereo not given)
Second: CC(C)(C)c1ccc(S(=O)(=O)Nc2ccc(-c3cn(C4CCCC4)c4ncnc(N)c34)cc2O)cc1
The melting point of the first is lower: 183 to 184 °C for the first, 278 to 280 °C for the second.

First: c1ccc(NCP2CN(c3ccccc3)CN(c3ccccc3)C2)cc1
Second: c1ccc(C(=C2CCNCC2)c2ccccc2)cc1
The melting point of the first is higher: 96 to 97 °C for the first, 85 to 86 °C for the second.

First: CC(=O)CNc1ccc(/C=C/C(=O)O)cc1
Second: Cc1c(-c2ccc(O)cc2)n(Cc2ccc(/C=C/C(=O)N(C)C)cc2)c2ccc(O)cc12
The melting point of the first is lower: 213 to 215 °C for the first, 278 to 280 °C for the second.

Compared with `Cc1ccc(C(C)C)c2c1CC(NNc1ncnc3c1ncn3C1OC(CO)C(O)C1O)CO2` (stereo not given), `O=C(Nc1cn(C2CCCCO2)nc1C(=O)NCCNc1ccccn1)c1ccccn1` (stereo not given) is higher in melting point: 98 to 101 °C for the first, 178 to 180 °C for the second.

Compared with `COC(=O)c1cnn2c(C(F)(F)F)cc(O)nc12`, `CCc1cc(-c2ccc(Cl)cc2)nc2c(C(=O)O)cnn12` is higher in melting point: 149 to 150 °C for the first, 227 °C for the second.

Compared with `O=C(N[C@@H](Cc1c[nH]c2ccccc12)C(=O)O)c1ccc(Cl)cc1`, `O=C(O)c1ccc(N2C(=O)CCC2(CO)CO)cc1` is higher in melting point: 100 to 102 °C for the first, 195 to 197 °C for the second.

First: COC(=O)c1cccn1CC(I)=C(I)I
Second: COC(=O)C(C)=Cc1cc(N)ccc1Cl
The melting point of the first is higher: 88 to 90 °C for the first, 80 °C for the second.

Compared with `Cc1cc(-c2cccc(C(F)(F)F)c2)n2nc(C(F)(F)F)nc2n1`, `Cc1nc2ccccc2n1-c1nc(Cl)nc(Cl)n1` is higher in melting point: 133 to 134 °C for the first, over 300 °C for the second.

First: CC(=O)N1CCN(CCN2C=Cc3cc(S(N)(=O)=O)sc3S2(=O)=O)CC1
Second: CC(C)N1CCC(N2CCN(CCN3CCCCC3)C2=C(C#N)C#N)CC1
The melting point of the first is higher: 180 to 183 °C for the first, 93 to 95 °C for the second.

First: N#CCC(=O)NCc1ccc(Cl)nc1
Second: N#Cc1ncncc1-c1ccc(CBr)cc1
The melting point of the first is higher: 119 °C for the first, 114 to 116 °C for the second.

First: Cn1cncc1C(N)(c1ccc(CN)cc1)c1ccc2c(c1)c(-c1cccc(Cl)c1)cc(=O)n2C (stereo not given)
Second: COc1cccc(NC(=O)NC2N=C(c3ccccc3)c3ccccc3N(CC(=O)N3CCCC3)C2=O)c1 (stereo not given)
The melting point of the first is lower: 150 °C for the first, 193 to 194 °C for the second.

First: COc1c(C)c2c(c(OS(=O)(=O)c3ccc(C)cc3)c1CC1=C(C)C(=O)CC1)C(=O)OC2
Second: Cc1c(C)c2c(c(C)c1OCc1ccccc1)C(=O)C(C)(C)O2
The melting point of the first is lower: 65.4 to 66.8 °C for the first, 114 to 115 °C for the second.

First: COc1ccc([PH](=O)c2ccc(OC)cc2)cc1
Second: CN(c1ccc(F)cc1)c1nc(=O)c2cccnc2s1
The melting point of the first is lower: 126 °C for the first, 184 to 185 °C for the second.

First: Cc1cccc(NC(=O)NCC(=O)N(CC(=O)OC(C)(C)C)c2ccccc2OC(F)(F)F)c1
Second: CCc1ccccc1NC=C1C(=O)N(c2ccccn2)N=C1C
The melting point of the first is lower: 163 °C for the first, 183 °C for the second.

First: CCC(=NO)c1nc(C)nc2c1c(C)c(C)n2-c1c(C)cc(C)cc1C
Second: CCCn1c(=O)c2c(nc(/C=C/c3ccc(OC)c(OC)c3)n2C)n(CCC)c1=O
The melting point of the first is lower: 84 to 87 °C for the first, 127 °C for the second.

Compared with `CC1(C)N=C(c2ccccc2)CC1c1ccncc1` (stereo not given), `O=C1Nc2ccccc2C12COc1ccc3c(c12)N(Cc1ccccn1)ON3` (stereo not given) is higher in melting point: 90 to 92 °C for the first, 180 to 182 °C for the second.

Compared with `O=c1ccc(-c2cccc(F)c2)n[nH]1`, `CCOC(=O)C(Cc1cc2c([N+](=O)[O-])cccc2[nH]1)[N+](=O)[O-]` (stereo not given) is lower in melting point: 207 to 209 °C for the first, 110 to 112 °C for the second.

First: OCc1ccc(Cn2c(CC3CCN(CCNc4ccc(Cl)nn4)CC3)nc3ccccc32)o1
Second: COc1cccc2c1nc(C(F)F)n2-c1nc(Nc2ccncn2)nc(N2CCOCC2)n1
The melting point of the first is lower: 188 °C for the first, 234 to 236 °C for the second.

First: OC1CCN(c2ccccc2)C12CCN(C1CC3CCCCCC3C1)CC2 (stereo not given)
Second: Cc1ncccc1OCCO
The melting point of the first is higher: 219 °C for the first, 75 to 80 °C for the second.

First: COc1cc(OC)nc(C2(C#N)OC(=O)c3c(Cl)ccc(Cl)c32)n1 (stereo not given)
Second: CS(=O)(=O)Oc1cc(NN)c(F)cc1Cl
The melting point of the first is higher: 123 to 126 °C for the first, 75 to 77 °C for the second.
